Converted amounts (≈) assume the structure as drawn. Each block holds one compound with its values, some of them ahead of it.
Key:
Experiment in all cases: ≥ marks a high value that may be exact or a test limit, other limits are often not marked, values filed in µg/mL are converted to µM
[1] = tested on: Aureobasidium pullulans
[2] = tested on: Bacillus megaterium
[3] = tested on: Bacillus subtilis ATCC 23857
[4] = tested on: Candida albicans ATCC 10231
[5] = tested on: Corynebacterium glutamicum ATCC 13032
[6] = tested on: Escherichia coli ATCC 25922
[7] = tested on: Micrococcus luteus
[8] = tested on: Pseudomonas aeruginosa ATCC 27853
[9] = tested on: Staphylococcus aureus ATCC 9144
[10] = tested on: Bacillus subtilis CCT 2471
[11] = tested on: Candida albicans
[12] = tested on: Escherichia coli CCT 1371
[13] = tested on: Pseudomonas aeruginosa ATCC 15442
[14] = tested on: Staphylococcus aureus ATCC 25923
[15] = tested on: Staphylococcus aureus ATCC 6538
[16] = tested on: Staphylococcus epidermidis
[17] = tested on: Staphylococcus saprophyticus
[18] = tested on: Erwinia amylovora PMV 6076
[19] = tested on: Pseudomonas syringae pv. syringae EPS 94
[20] = tested on: Xanthomonas campestris pv. Vesicatoria 2133-2
[21] = tested on: Escherichia coli K-12
[22] = tested on: Klebsiella pneumoniae
[23] = tested on: Pseudomonas aeruginosa PAO1
[24] = tested on: Staphylococcus aureus NCTC 8325-4
[25] = tested on: Aspergillus fumigatus
[26] = tested on: Proteus mirabilis
[27] = tested on: Pseudomonas aeruginosa
[28] = tested on: Staphylococcus aureus
[29] = tested on: Streptococcus pyogenes

SMILES: CC[C@H](C)[C@H](N)C(=O)N[C@@H](CC(N)=O)C(=O)N[C@@H](CC(C)C)C(=O)N[C@@H](CC(C)C)C(=O)N[C@@H](CCCCN)C(=O)N[C@H](C(=O)N[C@@H](C)C(=O)N[C@@H](CCCCN)C(=O)NCC(=O)N[C@H](C(=O)N[C@H](C(=O)N[C@@H](CCCCN)C(=O)N[C@@H](CO)C(=O)N[C@@H](CC(C)C)C(=O)O)[C@@H](C)CC)[C@@H](C)CC)[C@@H](C)CC [INLLKIAKGIIKSL]
MIC [10]: ≥ 65.6 µM | MIC [11]: > 65.6 µM | MIC [6]: 16.4 µM (≈ 25 µg/mL) | MIC [12]: ≥ 32.8 µM | MIC [13]: ≥ 65.6 µM | MIC [14]: 6.56 µM (≈ 10 µg/mL) | MIC [15]: 65.6 µM (≈ 100 µg/mL) | MIC [16]: ≥ 32.8 µM | MIC [17]: 16.4 µM (≈ 25 µg/mL)

SMILES: CC[C@H](C)[C@H](NC(=O)[C@H](CCCCN)NC(=O)[C@H](CCCCN)NC(=O)[C@H](Cc1ccccc1)NC(=O)[C@H](CC(C)C)NC(=O)[C@H](CCCCN)NC(=O)[C@@H](N)CCCCN)C(=O)N[C@@H](CC(C)C)C(=O)N[C@@H](CCCCN)C(=O)N[C@@H](Cc1ccc(O)cc1)C(=O)N[C@@H](CC(C)C)C(=O)O [KKLFKKILKYL]
MIC [18]: 8.66 µM (≈ 12.3 µg/mL) | MIC [19]: 8.66 µM (≈ 12.3 µg/mL) | MIC [20]: 14.1 µM (≈ 20.1 µg/mL)

SMILES: CC(C)[C@H](NC(=O)[C@H](CCCCN)NC(=O)[C@H](C)NC(=O)[C@@H](NC(=O)[C@@H](NC(=O)[C@H](CCCN=C(N)N)NC(=O)[C@H](CCCN=C(N)N)NC(=O)[C@H](Cc1c[nH]c2ccccc12)NC(=O)[C@H](Cc1c[nH]c2ccccc12)NC(=O)CN)[C@@H](C)O)C(C)C)C(=O)N[C@@H](C)C(=O)N[C@@H](CCCCN)C(N)=O [GWWRRTVAKVAK]
MIC [1]: ≥ 50 µM | MIC [4]: 25 µM (≈ 36.4 µg/mL) | MIC [5]: 1.6 µM (≈ 2.33 µg/mL) | MIC [6]: 12.5 µM (≈ 18.2 µg/mL) | MIC [8]: 12.5 µM (≈ 18.2 µg/mL) | MIC [9]: ≥ 100 µM

SMILES: CC(C)C[C@H](NC(=O)[C@H](Cc1ccccc1)NC(=O)[C@@H]1CCCN1C(=O)[C@H](Cc1c[nH]c2ccccc12)NC(=O)[C@H](CS)NC(=O)[C@@H](NC(=O)[C@H](Cc1c[nH]c2ccccc12)NC(=O)[C@@H]1CCCN1C(=O)[C@H](Cc1ccccc1)NC(=O)[C@H](CCCN=C(N)N)NC(=O)[C@H](CCCN=C(N)N)NC(=O)[C@@H](N)CCCN=C(N)N)C(C)C)C(=O)N[C@@H](CCCN=C(N)N)C(=O)N[C@@H](CCCN=C(N)N)C(=O)N[C@@H](CCCN=C(N)N)C(=O)O [RRRFPWVCWPFLRRR]
MIC [25]: ≥ 117 µM | MIC [11]: 469 µM (≈ 1000 µg/mL)

Now from value to compound:

MIC [1]: 24.6 µM (≈ 31.3 µg/mL) | MIC [2]: 0.785 µM (≈ 0.999 µg/mL) | MIC [3]: 12.2 µM (≈ 15.6 µg/mL) | MIC [4]: 24.6 µM (≈ 31.3 µg/mL) | MIC [5]: 1.57 µM (≈ 2 µg/mL) | MIC [6]: 24.6 µM (≈ 31.3 µg/mL) | MIC [7]: 12.2 µM (≈ 15.6 µg/mL) | MIC [8]: 196 µM (≈ 250 µg/mL) | MIC [9]: ≥ 196 µM
SMILES: C[C@H](NC(=O)[C@H](CCCCN)NC(=O)[C@H](Cc1c[nH]c2ccccc12)NC(=O)CNC(=O)[C@H](Cc1c[nH]c2ccccc12)NC(=O)[C@H](Cc1c[nH]c2ccccc12)NC(=O)[C@H](CCCCN)NC(=O)[C@H](CCCCN)NC(=O)CN)C(=O)N[C@@H](CCCCN)C(N)=O [GKKWWGWKAK]

MIC [21]: ≥ 500 µM | MIC [22]: > 500 µM | MIC [23]: > 500 µM | MIC [24]: ≥ 500 µM
SMILES: CC[C@H](C)[C@H](N)C(=O)N[C@@H](CCCCN)C(=O)N[C@@H](CCCCN)C(=O)N[C@H](C(=O)N[C@H](C(=O)N[C@@H](CCCCN)C(=O)N[C@@H](CCCCN)C(=O)N[C@H](C(=O)N[C@H](C(=O)N[C@@H](CCCCN)C(N)=O)[C@@H](C)CC)[C@@H](C)CC)[C@@H](C)CC)[C@@H](C)CC [IKKIIKKIIK]

MIC [26]: ≥ 39 µM | MIC [27]: > 39 µM | MIC [28]: 5.49 µM (≈ 9 µg/mL) | MIC [29]: 0.61 µM (≈ 1 µg/mL)
SMILES: NC(N)=NCCC[C@H](NC(=O)[C@H](CCCN=C(N)N)NC(=O)[C@H](CCCN=C(N)N)NC(=O)[C@H](CCCN=C(N)N)NC(=O)[C@H](CCCN=C(N)N)NC(=O)[C@H](CCCN=C(N)N)NC(=O)[C@H](CCCN=C(N)N)NC(=O)[C@H](CCCN=C(N)N)NC(=O)[C@H](Cc1c[nH]c2ccccc12)NC(=O)[C@@H](N)Cc1c[nH]c2ccccc12)C(=O)O [WWRRRRRRRR]

From DBAASP
